According to PubChem BioAssay (NCI):
Values joined by “and” are separate entries in the source; they are usually repeats but may differ in a detail not shown here. Equal values may be shown once.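 All cell lines were grown in 96-well plates and treated with compound for 48 hours. GI50: concentration for 50% inhibition of growth. TGI: concentration producing complete growth inhibition.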

Experiments:
Assay in all cases: NCI tumour cell line growth inhibition, 48 h
HCT-15 colon = test system: HCT-15 colon
SF-539 CNS = test system: SF-539 CNS
EKVX NSCLC = test system: EKVX NSCLC
K-562 leukemia = test system: K-562 leukemia
ACHN renal = test system: ACHN renal
CCRF-CEM leukemia = test system: CCRF-CEM leukemia
SW-620 colon = test system: SW-620 colon
HCC-2998 colon = test system: HCC-2998 colon
OVCAR-4 ovarian = test system: OVCAR-4 ovarian
MALME-3M melanoma = test system: MALME-3M melanoma

SMILES	GI50 (HCT-15 colon) [nM]	TGI (HCT-15 colon) [µM]	GI50 (SF-539 CNS) [µM]	TGI (SF-539 CNS) [µM]	GI50 (EKVX NSCLC) [µM]	TGI (EKVX NSCLC) [µM]	GI50 (K-562 leukemia) [µM]	TGI (K-562 leukemia) [µM]	GI50 (ACHN renal) [nM]	TGI (ACHN renal) [µM]	GI50 (CCRF-CEM leukemia) [nM]	TGI (CCRF-CEM leukemia)	GI50 (SW-620 colon) [nM]	TGI (SW-620 colon) [µM]	GI50 (HCC-2998 colon)	TGI (HCC-2998 colon) [µM]	GI50 (OVCAR-4 ovarian)	TGI (OVCAR-4 ovarian) [µM]	GI50 (MALME-3M melanoma) [nM]	TGI (MALME-3M melanoma) [µM]
O=C(Oc1ccc(Cl)cc1Cl)c1ccccc1Nc1ccnc(C(F)(F)F)c1	2260	5.31	3.77	12	18.5	40.9	3.03	8.51	13200	27	3540	> 100 µM	4590	32.5	3250 nM	5.49	–	–	–	–
Cc1ccc(-[n+]2c3cc(N)c(C)cc3nc3cc(C)c(Nc4ccccc4)cc32)cc1	–	–	–	–	0.0651	1.03	0.0393	2.69	107	1.17	223	> 100 µM	70.8	1.08	566 nM	1.82	333 nM	1.59	–	–
Cn1c(=O)nc2n(-c3ccc(Cl)cc3)c3ccc(Cl)cc3nc-2c1=O	–	26.5	–	–	–	28.7	–	37.4	–	–	–	85.6 µM	–	19.2	–	40.6	–	–	–	–
C=C1C(=O)O[C@H]2[C@H]1CC/C(Cn1cc(CNC(=O)Cc3cn(C(=O)c4ccc(Cl)cc4)c4ccc(OC)cc34)nn1)=C\CC[C@@]1(C)O[C@@H]21	2770	10.7	1.57	2.96	2.29	7.33	–	–	1920	3.71	384	2.4 µM	932	2.65	–	–	1440 nM	3.02	1620	3.18
COc1cc(-c2nn(-c3ccc(NC(=O)c4ccc(Cl)c(Cl)c4)cc3)cc2-c2ccncc2)ccc1Cl	2680	> 100	2.85	> 100	6.82	> 100	4.05	> 100	8060	> 100	4560	> 100 µM	5630	> 100	31800 nM	> 100	23400 nM	> 100	–	–
Cc1c2c(nn1-c1ccc(S(=O)(=O)NC(=S)Nc3ccccc3)cc1)-c1ccccc1CC2	38800	> 50	> 50	> 50	> 50	> 50	> 50	> 50	> 50000	> 50	–	–	> 50000	> 50	–	–	> 50000 nM	> 50	1150	> 50
ClCc1cccc(Cn2cnc3c(Cl)ncnc32)c1	2170	4.64	20.1	35.3	18.6	34.1	3.56	15.2	2080	4.09	1910	3.85 µM	2120	4.33	407 nM	1.75	2350 nM	5.69	–	–
CC[C@H](C)N(CCN)C(=O)c1cc2ccccc2c(-c2ccccc2Cl)n1	–	16.1	–	6.5	–	25.4	–	12.6	–	28.1	–	15.7 µM	–	30	–	9.06	–	30.1	–	–
O=C1C(=O)N(C(=O)c2ccc(Cl)c(Cl)c2)c2ccccc21	–	–	–	> 100	–	> 100	–	> 100	–	> 100	–	> 100 µM	–	> 100	–	–	–	> 100	–	–
CCOC(=O)c1c2c(n3ccc(NC(=O)CCN4CCCC4)cc13)C(=O)c1ncccc1C2=O	–	–	1.52	3.19	1.46	3.58	–	–	38.2	1.52	1880	5.41 µM	–	–	–	–	–	–	15800	41.4
Cc1cc2c(c(C#N)c1C)NC(=O)CCC2=O	–	> 100	–	> 100	–	> 100	–	> 100	–	> 100	–	> 100 µM	–	> 100	–	> 100	–	> 100	–	–
N#Cc1cn(C2OC(CO)C(O)C2O)c2ncnc(N)c12 (centres undefined)	< 11.7	–	–	–	–	–	0.0175	–	< 10	0.02	45	0.216 µM and 0.84 µM and 0.0961 µM	< 14.5	> 100	60.9 nM and 75.8 nM and < 24.9 nM	–	28.2 nM and 11.7 nM	–	–	–
COc1ccc(-c2nc3sc(C)cn3c2/C=C/C(=O)c2cc(OC)c(OC)c(OC)c2)cc1	3350	> 100	4.28	> 100	4.04	> 100	3.13	> 100	4130	> 100	3060	> 100 µM	–	–	3710 nM	7.66	3150 nM	> 100	–	–
COc1cc(OC)c([C@@H]2OC(=O)C3C2C(=O)O[C@H]3c2cc(OC)c(OC)cc2OC)cc1OC (some centres undefined)	–	> 100	–	> 100	–	> 100	–	> 100	–	> 100	–	> 100 µM	–	> 10	–	> 100	–	> 100	–	–
